According to patent US20220072009A1, “SHORT-ACTING SELECTIVE GLUCOCORTICOID RECEPTOR MODULATORS” (PANDA CONSULTING LLC, priority 2018, published 2022):

How the values were obtained:
[1] = system: male CD-1 mice; test: elevated plus maze test (EPM), mouse model of stress-induced anxiety; type: in vivo
Description: Formula III (also referred to as PND-001) as a representative compound out of the class of SASGRMs was tested in a mouse model of stress-induced anxiety, the elevated plus maze test (EPM) (Experiment 1). The EPM relies on the inherent conflict between a rodent's tendency to explore a novel environment on one hand, and the stress of such exploration, resulting in avoidance of the aversive properties of the brightly lit open arms. Compounds that reduce anxiety specifically increase the frequency of entries into the open arms and time spent in the open arms.
Four to five week-old male CD-1 mice were group-housed (6 or 7 mice per cage) and maintained in a room with controlled temperature (21-22° C.) and a reversed light-dark cycle (12 h/12 h; lights on: 17:30-05:30; lights off: 05:30-17:30) with food and water available ad libitum.
Formula III and the vehicle (5% Dimethyl Sulfoxide (DMSO) and 95% Polyethylene Glycol 400 (PEG400)) were s.c. administrated 24 hours and 6 hours prior the EPM trial.
Diazepam was p.o. administrated 60 min prior the EPM trial as a positive control.
Formula III was tested in doses of 10, 30 and 100 mg/kg. Diazepam was p.o administrated 60 min prior the EPM trial and tested in a dose of 1 mg/kg. (see Table 1).
The mice were randomly assigned to one of the different experimental groups. Each animal was identified by its group name, cage number, series (day) of experiment, and a number (from 1 to 12) written with permanent ink on its tail.
The apparatus was a PVC maze covered with Plexiglas and subdivided into four equal exploratory arms (21×8 cm), which are all interconnected by a small platform (8×8 cm). The apparatus was placed 59 cm above the floor. Two arms are opened and two others are closed with wall (high: 21 cm).
After compound administration, mouse was placed on the platform opposite a closed arm. The number of entries and the time spent in each arm were recorded during a 5 min period. The animal was considered as entered in an arm when it places its four paws in the arm.
Analysis of variance (ANOVA) was performed on the result data. Fisher's PLSD was used for pairwise comparisons and p value ≤0.05 were considered significant.
In the next experiment in the Elevated Plus Maze Test (Experiment 2; conducted as described under the same experimental procedures and analysis as described for Experiment 1), the efficacy of Formula III (also referred to as PND001) at lower doses was studied. […] Compounds or vehicle (5% Dimethyl Sulfoxide (DMSO) and 95% Polyethylene Glycol 400 (PEG400)) were administrated s.c. 24 hours and 6 hours prior the EPM trial (Table 3).
Formula III (PND 001) was tested in doses of 1, 3 and 10 mg/kg. Formula IV (PND 002) was tested in doses of 30 mg/kg. Diazepam was p.o administrated 60 min prior the EPM trial as positive control and tested in a dose of 1 mg/kg.
In a third experiment in the Elevated Plus Maze Test (Experiment 3), conducted as described under the same experimental procedures and analysis as described for Experiment 1, the effect of the dosing route and regimen was investigated. Formula III (also referred to as PND001) and the vehicle (5% Dimethyl Sulfoxide (DMSO) and 95% Polyethylene Glycol 400 (PEG400)) were administrated by gavage (p.o.). Diazepam was i.p. administrated 30 min prior the EPM trial as positive control.
PND 001 was tested in doses of 3 mg/kg which had the highest efficacy in Experiment 2, and administrated either twice at 6 h and 1 h before the EPM trial, or given only once at 1 h before the trial. Diazepam was i.p. administrated 30 min prior the EPM trial and tested in a dose of 1 mg/kg. (see Table 5).

[2] = reported, cited from earlier work
[3] = system: MDCK cell monolayers; details: pH 7.4
Description: BBB penetration is assessed in vitro using confluent MDCK cell monolayers and dosing of 504 of test compounds on apical and basolateral side of the monolayer at pH 7.4 for 90 min. The apparent permeability in both directions, and the efflux ratio is determined after subjecting samples to LC-MS/MS analysis.

[4] = system: corticosterone; details: mouse, in vivo, po, 30 mg/kg
[5] = system: rat plasma proteins; details: reported; cited from earlier work
[6] = system: human plasma proteins; details: reported; cited from earlier work
[7] = system: rat hepatocytes; details: in vitro, reported; cited from earlier work
[8] = Experiment 2, 30 mg/kg sc 24 h and 6 h
[9] = Experiment 2, 30 mg/kg, 24 + 6 h, sc
[10] = Experiment 1, 1 mg/kg po 60 min
[11] = Experiment 2, 1 mg/kg po 60 min
[12] = Experiment 3, 1 mg/kg ip 30 min
[13] = Experiment 3, 1 mg/kg, 30 min, ip

For CCCCCCNC(=O)[C@@]1(O)[C@H](C)CC2[C@@H]3CCC4=CC(=O)C=C[C@]4(C)[C@@]3(F)[C@@H](O)C[C@@]21C (some centres unmarked) [Formula IV], the “increase in number of entries into the open arms compared to vehicle treated mice” value [1, 8] was 77%, the “increase in time spent into the open arms compared to vehicle treated mice” value [1, 8] was 90% and the “Number of entries in the open arm, Mean” value [1, 9] was 10.1 n. For the same compound, the “Time spent in the open arm, Mean” value [1, 9] was 64.1 s, the “conversion to unidentified metabolites in rat liver microsomes (time)” value [2] was no more than 30 min and the BBB penetration potential [3] was “moderate to high”. The corticosterone increase [4] was “not found to be significantly increased”.

In the case of CN1C(=O)CN=C(c2ccccc2)c2cc(Cl)ccc21 [Diazepam, reference compound], the “increase in number of entries to the open arms compared to vehicle treated mice” value [1, 10] is reported as 233%, the “increase in time spent in the open arms compared to vehicle treated mice” value [1, 10] is reported as 327% and the “Number of entries in the open arm, Mean” value ([1]; Experiment 1, 1 mg/kg, 1 h, po) is reported as 10.0 n. For the same compound, the “Time spent in the open arm, Mean” value ([1]; Experiment 1, 1 mg/kg, 1 h, po) was 59.6 s, the “increase in number of entries into the open arms compared to vehicle treated mice” value [1, 11] was 146% and the “increase in time spent into the open arms compared to vehicle treated mice” value [1, 11] was 151%. The “Number of entries in the open arm, Mean” value ([1]; Experiment 2, 1 mg/kg, 1 h, po) was 14.0 n, the “Time spent in the open arm, Mean” value ([1]; Experiment 2, 1 mg/kg, 1 h, po) was 84.6 s and the “increase in number of entries into the open arms compared to vehicle treated mice” value [1, 12] was 400%. For the same compound, the “increase in time spent into the open arms compared to vehicle treated mice” value [1, 12] was 270%, the “Number of entries in the open arm, Mean” value [1, 13] was 23.2 n and the “Time spent in the open arm, Mean” value [1, 13] was 116.9 s.

In the case of C[C@]12C=CC(=O)C=C1CCC1C2OC[C@@]2(C)C1CC[C@]2(O)C(=O)CO (some centres unmarked) [Formula V], the BBB penetration potential [3] is reported as “moderate to high” and the corticosterone increase [4] is reported as “not found to be significantly increased”.

In the case of CC#C[C@]1(O)CC[C@H]2[C@@H]3CCC4=CC(=O)CCC4=C3[C@@H](c3ccc(N(C)C)cc3)C[C@@]21C [mifepristone], the “plasma protein binding, rat serum” value [5] is listed as “over 95%” and the “plasma protein binding, human serum” value [6] is listed as “over 95%”.

For C[C@]12CCC3C(C[C@H]4OC[C@@]35CCC(=O)C=C45)C1CC[C@@H]2C(=O)CO (some centres unmarked) [Formula II], the BBB penetration potential [3] was “moderate to high” and the corticosterone increase [4] was “not found to be significantly increased”.

For CC#C[C@]1(O)CCC2C3CCC4=CC(=O)CC[C@]4(Cc4ccc(C)cc4)C3=CC[C@@]21C (stereo partly drawn) [Formula I, (10R,13S,17S)-17-hydroxy-13-methyl-10-[(4-methylphenyl)methyl]-17-prop-1-ynyl-2,6,7,8,12,14,15,16-octahydro-1H-cyclopenta[a]phenanthrene-3-one], the “half life in rat liver microsomes” value ([2]; in vitro) is given as 19.8 min, the BBB penetration potential [3] is given as “moderate to high” and the corticosterone increase [4] is given as “not found to be significantly increased”. For the same compound, the “half life in rat hepatocytes” value [7] was “less than 0.2 h”.
